This passage reports IC50 results from US9522914B2, “Azole derivative” (TAISHO PHARMACEUTICAL CO., LTD, priority 2011, dated 2016).

Each structure is given as a SMILES string.

One may read the IC50 as the concentration that gives 50% inhibition. Low readings indicate higher potency, high ones lower potency.

The target in the test is Human V1b receptor (Homo sapiens (Human), UniProt P47901). The test is described as follows: Binding Test for V1b Receptor ([3H]AVP, crude membrane preparation of 293FT cells). To be noted: inhibition of [3H]AVP binding (0.4 to 1 nmol/L), room temperature, 60 minutes. Summed up: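 Crude membranes from 293FT cells transiently expressing human V1b, incubated with [3H]AVP (0.4 to 1 nmol/L) and compound (0.01 nmol/L–1 μmol/L final) in Tris pH 7.4 with MgCl2 and 0.1% BSA, 60 min at room temperature. Bound label collected by filtration. Nonspecific binding defined with unlabeled AVP; IC50 from dose-response curve.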
Human V1b receptor, sequence (P47901 whole entry): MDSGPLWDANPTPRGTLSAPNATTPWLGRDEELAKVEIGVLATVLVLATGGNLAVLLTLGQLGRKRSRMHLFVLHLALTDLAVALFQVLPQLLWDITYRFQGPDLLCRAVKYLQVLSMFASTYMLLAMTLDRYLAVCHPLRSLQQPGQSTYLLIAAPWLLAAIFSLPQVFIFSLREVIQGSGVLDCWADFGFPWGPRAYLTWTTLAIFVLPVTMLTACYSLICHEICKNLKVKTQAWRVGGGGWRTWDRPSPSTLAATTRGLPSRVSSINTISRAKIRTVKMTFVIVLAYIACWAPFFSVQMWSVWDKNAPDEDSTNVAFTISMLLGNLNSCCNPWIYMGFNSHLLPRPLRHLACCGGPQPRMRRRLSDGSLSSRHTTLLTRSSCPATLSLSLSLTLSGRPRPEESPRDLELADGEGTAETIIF
In the case of `COc1cccc(-c2nc(-c3ccc(CCN4CCC(NC(C)=O)CC4)cc3)nn2CC(=O)NC(C)C)c1` [Example B-35, 2-[3-(4-{2-[4-(acetylamino)piperidin-1-yl]ethyl}phenyl)-5-(3-methoxyphenyl)-1H-1,2,4-triazol-1-yl]-N-(propan-2-yl)acetamide], the concentration for half-maximal inhibition (IC50) is 100 to 1000 nM.

In turn, `COc1cccc(-c2nc(-c3ccc(CCN4CCC(C)(O)CC4)cc3)nn2CC(=O)NC(C)C)c1` [Example B-36, 2-[3-{4-[2-(4-hydroxy-4-methylpiperidin-1-yl)ethyl]phenyl}-5-(3-methoxyphenyl)-1H-1,2,4-triazol-1-yl]-N-(propan-2-yl)acetamide] registered an IC50 of 10 to 100 nM.

Regarding `COc1cccc(-c2nc(-c3ccc(CCN4CC5(CCOCC5)C4)cc3)nn2CC(=O)NC(C)C)c1` [Example B-37, 2-[5-(3-methoxyphenyl)-3-{4-[2-(7-oxa-2-azaspiro[3.5]non-2-yl)ethyl]phenyl}-1H-1,2,4-triazol-1-yl]-N-(propan-2-yl)acetamide], the IC50 was under 10 nM.

For the compound `COc1cccc(-c2nc(-c3ccc(CCN4CCC(C(F)(F)F)CC4)cc3)nn2CC(=O)NC(C)C)c1` [Example B-38, 2-[5-(3-methoxyphenyl)-3-(4-{2-[4-(trifluoromethyl)piperidin-1-yl]ethyl}phenyl)-1H-1,2,4-triazol-1-yl]-N-(propan-2-yl)acetamide], the IC50 lay in the range of 10 to 100 nM.

`COc1cccc(-c2nc(-c3ccc(CCN4CCC(F)CC4)cc3)nn2CC(=O)NC(C)C)c1` [Example B-39, 2-[3-{4-[2-(4-fluoropiperidin-1-yl)ethyl]phenyl}-5-(3-methoxyphenyl)-1H-1,2,4-triazol-1-yl]-N-(propan-2-yl)acetamide] registered an IC50 of 10 to 100 nM.

With `COc1cccc(-c2nc(-c3ccc(CCN4CCC(F)(F)CC4)cc3)nn2CC(=O)NC(C)C)c1` [Example B-40, 2-[3-{4-[2-(4,4-difluoropiperidin-1-yl)ethyl]phenyl}-5-(3-methoxyphenyl)-1H-1,2,4-triazol-1-yl]-N-(propan-2-yl)acetamide], the IC50 was 10 to 100 nM.

In turn, `COc1cccc(-c2nc(-c3ccc(CCN4C(C)COCC4C)cc3)nn2CC(=O)NC(C)C)c1` (stereo not shown) [Example B-41, 2-[3-{4-[2-(3,5-dimethylmorpholin-4-yl)ethyl]phenyl}-5-(3-methoxyphenyl)-1H-1,2,4-triazol-1-yl]-N-(propan-2-yl)acetamide] showed a half-maximal inhibitory concentration (IC50) of 10 to 100 nM.

On to `COc1cccc(-c2nc(-c3ccc(CCN4CC5(COC5)C4)cc3)nn2CC(=O)NC(C)C)c1` [Example B-42, 2-[5-(3-methoxyphenyl)-3-{4-[2-(2-oxa-6-azaspiro[3.3]hept-6-yl)ethyl]phenyl}-1H-1,2,4-triazol-1-yl]-N-(propan-2-yl)acetamide], for which the IC50 is under 10 nM.

Consider `CC(C)NC(=O)Cc1nn(-c2ccc(CCN3CCCCC3)cc2)cc1-c1cccc(Cl)c1` [Example C-01, 2-[4-(3-chlorophenyl)-1-{4-[2-(piperidin-1-yl)ethyl]phenyl}-1H-pyrazol-3-yl]-N-(propan-2-yl)acetamide], for which the concentration for half-maximal inhibition (IC50) stood at 21 nM. That is a double-digit nanomolar value.

Compound `CC(C)NC(=O)Cc1cn(-c2ccc(CCN3CCCCC3)cc2)nc1-c1cccc(Cl)c1` [Example C-02, 2-[3-(3-chlorophenyl)-1-{4-[2-(piperidin-1-yl)ethyl]phenyl}-1H-pyrazol-4-yl]-N-(propan-2-yl)acetamide] came in with a concentration for half-maximal inhibition (IC50) of 13 nM.

Compound `CC(C)NC(=O)Cc1cn(-c2ccc(CCN3CCOCC3)cc2)nc1-c1cccc(Cl)c1` [Example C-03, 2-[3-(3-chlorophenyl)-1-{4-[2-(morpholin-4-yl)ethyl]phenyl}-1H-pyrazol-4-yl]-N-(propan-2-yl)acetamide] came in with an IC50 of 8.6 nM.

With `CC(C)NC(=O)Cc1cn(-c2ccc(CCN3CC4(COC4)C3)cc2)nc1-c1cccc(Cl)c1` [Example C-04, 2-[3-(3-chlorophenyl)-1-{4-[2-(2-oxa-6-azaspiro[3.3]hept-6-yl)ethyl]phenyl}-1H-pyrazol-4-yl]-N-(propan-2-yl)acetamide], the concentration for half-maximal inhibition (IC50) is 10 to 100 nM.

`CC(C)NC(=O)Cc1cc(-c2ccc(CCN3CCOCC3)cc2)nn1-c1cccc(Cl)c1` [Example C-05, 2-[1-(3-chlorophenyl)-3-{4-[2-(morpholin-4-yl)ethyl]phenyl}-1H-pyrazol-5-yl]-N-(propan-2-yl)acetamide]: the 50% inhibitory concentration (IC50) amounted to 21 nM.

With `CC(C)NC(=O)Cn1nc(-c2ccc(CCN3CCCCC3)cc2)cc1-c1cccc(Cl)c1` [Example C-06, 2-[5-(3-chlorophenyl)-3-{4-[2-(piperidin-1-yl)ethyl]phenyl}-1H-pyrazol-1-yl]-N-(propan-2-yl)acetamide], the half-inhibitory concentration (IC50) was found to be 17 nM. The IC50 values of the last two compounds are within 1.5-fold of each other.

Regarding `CC(C)NC(=O)Cn1nc(-c2ccc(CCN3CCOCC3)cc2)cc1-c1cccc(Cl)c1` [Example C-07, 2-[5-(3-chlorophenyl)-3-{4-[2-(morpholin-4-yl)ethyl]phenyl}-1H-pyrazol-1-yl]-N-(propan-2-yl)acetamide], the IC50 turned out to be 7.1 nM.

`CC(C)NC(=O)Cc1nc(-c2ccc(CCN3CCCCC3)cc2)oc1-c1cccc(Cl)c1` [Example C-08, 2-[5-(3-chlorophenyl)-2-{4-[2-(piperidin-1-yl)ethyl]phenyl}-1,3-oxazol-4-yl]-N-(propan-2-yl)acetamide] gave an IC50 of 10 to 100 nM.

In turn, `CC(C)NC(=O)Cc1nc(-c2ccc(CCN3CCOCC3)cc2)oc1-c1cccc(Cl)c1` [Example C-09, 2-[5-(3-chlorophenyl)-2-{4-[2-(morpholin-4-yl)ethyl]phenyl}-1,3-oxazol-4-yl]-N-(propan-2-yl)acetamide] yielded a half-inhibitory concentration (IC50) of 27 nM. This counts as double-digit nanomolar.

For `CC(C)NC(=O)Cc1oc(-c2ccc(CCN3CCCCC3)cc2)nc1-c1cccc(Cl)c1` [Example C-10, 2-[4-(3-chlorophenyl)-2-{4-[2-(piperidin-1-yl)ethyl]phenyl}-1,3-oxazol-5-yl]-N-(propan-2-yl)acetamide], the concentration for half-maximal inhibition (IC50) is 6.5 nM.

Take `CC(C)NC(=O)Cc1oc(-c2ccc(CCN3CCOCC3)cc2)nc1-c1cccc(Cl)c1` [Example C-11, 2-[4-(3-chlorophenyl)-2-{4-[2-(morpholin-4-yl)ethyl]phenyl}-1,3-oxazol-5-yl]-N-(propan-2-yl)acetamide]: the IC50 came to 3.9 nM. Against the preceding compound, the IC50 is about 1.7-fold lower.

Compound `CC(C)NC(=O)Cc1nc(-c2ccc(CCN3CCCCC3)cc2)sc1-c1cccc(Cl)c1` [Example C-13, 2-[5-(3-chlorophenyl)-2-{4-[2-(piperidin-1-yl)ethyl]phenyl}-1,3-thiazol-4-yl]-N-(propan-2-yl)acetamide] yielded a half-inhibitory concentration (IC50) of 16 nM.

With `CC(C)NC(=O)Cc1nc(-c2ccc(CCN3CCOCC3)cc2)sc1-c1cccc(Cl)c1` [Example C-14, 2-[5-(3-chlorophenyl)-2-{4-[2-(morpholin-4-yl)ethyl]phenyl}-1,3-thiazol-4-yl]-N-(propan-2-yl)acetamide], the IC50 is 14 nM.

`CC(C)NC(=O)Cc1nc(-c2ccc(CCN3CC4(COC4)C3)cc2)sc1-c1cccc(Cl)c1` [Example C-15, 2-[5-(3-chlorophenyl)-2-{4-[2-(2-oxa-6-azaspiro[3.3]hept-6-yl)ethyl]phenyl}-1,3-thiazol-4-yl]-N-(propan-2-yl)acetamide] showed a 50% inhibitory concentration (IC50) of 22 nM.

Take `CC(C)NC(=O)Cc1nc(-c2cccc(CCN3CCCCC3)c2)sc1-c1cccc(Cl)c1` [Example C-16, 2-[5-(3-chlorophenyl)-2-{3-[2-(piperidin-1-yl)ethyl]phenyl}-1,3-thiazol-4-yl]-N-(propan-2-yl)acetamide]: the IC50 lay within 100 to 1000 nM.

For `CC(C)NC(=O)Cc1nc(-c2cccc(CCN3CCOCC3)c2)sc1-c1cccc(Cl)c1` [Example C-17, 2-[5-(3-chlorophenyl)-2-{3-[2-(morpholin-4-yl)ethyl]phenyl}-1,3-thiazol-4-yl]-N-(propan-2-yl)acetamide], the IC50 was 100 to 1000 nM.

Regarding `CC(C)NC(=O)CC1=C(c2cccc(Cl)c2)C(=O)N(c2ccc(CCN3CCOCC3)cc2)C1=O` [Example C-18, 2-[4-(3-chlorophenyl)-1-{4-[2-(morpholin-4-yl)ethyl]phenyl}-2,5-dioxo-2,5-dihydro-1H-pyrrol-3-yl]-N-(propan-2-yl)acetamide], the IC50 worked out at 9 nM.

For `CC(C)NC(=O)Cn1c(-c2cccc(Cl)c2)cn(-c2ccc(CCN3CCOCC3)cc2)c1=O` [Example C-19, 2-[5-(3-chlorophenyl)-3-{4-[2-(morpholin-4-yl)ethyl]phenyl}-2-oxo-2,3-dihydro-1H-imidazol-1-yl]-N-(propan-2-yl)acetamide], the IC50 was found to be 2.2 nM.

Turning to `Cc1c(-c2cccc(Cl)c2)n(CC(=O)NC(C)C)c(=O)n1-c1ccc(CCN2CCOCC2)cc1` [Example C-20, 2-[5-(3-chlorophenyl)-4-methyl-3-{4-[2-(morpholin-4-yl)ethyl]phenyl}-2-oxo-2,3-dihydro-1H-imidazol-1-yl]-N-(propan-2-yl)acetamide], the IC50 fell in the range of 10 to 100 nM.

The compound `CC(C)NC(=O)Cc1nc(-c2ccc(CCN3CCOCC3)cc2)nn1-c1cccc(Cl)c1` [Example C-21, 2-[1-(3-chlorophenyl)-3-{4-[2-(morpholin-4-yl)ethyl]phenyl}-1H-1,2,4-triazol-5-yl]-N-(propan-2-yl)acetamide] had a 50% inhibitory concentration (IC50) of 14 nM.

The compound `CC(C)NC(=O)Cc1nc(-c2ccc(CCN3C4CCC3COC4)cc2)nn1-c1cccc(Cl)c1` [Example C-22, 2-[1-(3-chlorophenyl)-3-{4-[2-(3-oxa-8-azabicyclo[3.2.1]oct-8-yl)ethyl]phenyl}-1H-1,2,4-triazol-5-yl]-N-(propan-2-yl)acetamide] registered a half-inhibitory concentration (IC50) of 8.8 nM.

`CC(C)NC(=O)Cc1nn(-c2ccc(CCN3C4CCC3COC4)cn2)c(=O)n1-c1cccc(Cl)c1` [Example D-02, 2-[4-(3-chlorophenyl)-1-{5-[2-(3-oxa-8-azabicyclo[3.2.1]oct-8-yl)ethyl]pyridin-2-yl}-5-oxo-4,5-dihydro-1H-1,2,4-triazol-3-yl]-N-(propan-2-yl)acetamide] gave a concentration for half-maximal inhibition (IC50) of 10 to 100 nM.

`CC(C)NC(=O)Cc1nn(-c2ccc(CCN3C4CCC3COC4)cc2)c(=O)n1-c1cccc(Cl)c1` [Example D-03, 2-[4-(3-chlorophenyl)-1-{4-[2-(3-oxa-8-azabicyclo[3.2.1]oct-8-yl)ethyl]phenyl}-5-oxo-4,5-dihydro-1H-1,2,4-triazol-3-yl]-N-(propan-2-yl)acetamide] had an IC50 of 14 nM.
